The values below come from patent US20130310362A1, “FUSED PYRIMIDINES” (BAYER PHARMA AKTIEGESELLSCHAFT, priority 2009, published 2013).

In experiment [1] the test system is Akt phosphorylation (Ser473) in MCF7 cells. Put plainly: Cellular PI3K/Akt pathway assay (Phospho-Akt1 (Ser473) sandwich ELISA). Type of experiment: cell-based. The note with it: Homo sapiens, β-Heregulin stimulated, 48 h incubation, read-out: IC50 p-Akt (Biological Assay 5.0). In general terms: ELISA stands for enzyme-linked immunosorbent assay.
Protocol: Biological Assay 5.0: Cellular PI3K/Akt Pathway Assay
In order to study the cellular activity of the compounds according to the present invention, an Enzyme Linked Immunosorbent Assay (ELISA)-based assay may be used to investigate the inhibitory effect on Akt phosphorylation.
The ELISA Kit detects endogenous levels of phosphorylated Akt protein. […] After incubation with cell lysates, the coated antibody captures the phosphorylated Akt protein. […] The magnitude of optical density for this developed color is proportional to the quantity of phosphorylated Akt protein. MCF7 cells (ATCC HTB-22) are seeded into 96 well fate bottom plates at a density of 10000 cells/well. 24 hours after seeding, the cells are serum starved using low-serum medium (IMEM media including 0.1% charcoal treated FCS (FCS: fetal calf serum)). After 24 hours 1 μl each of the compound dilutions (test compounds were dissolved as 10 mM solutions in dimethylsulfoxide (DMSO) and subsequently diluted) are added into each well of the 96 well plates and incubated for 48 h at 37° C. in a humidified athmosphere containing 5% CO2. To stimulate Akt phosphorylation, β-Heregulin (20 ng/mL β-HRG) is added in parallel to the compounds. Wells containing unstimulated control cells (no β-Heregulin stimulation) are incubated with or without the diluted compound. Wells containing untreated control cells (no compound) are filled with medium containing 0.5% v:v DMSO and are or are not stimulated with 3-Heregulin.
Cells are harvested and lysed with brief sonification in 1× cell lysis buffer (20 mM Tris (pH7.5), 150 mM NaCl, 1 mM ethylene diaminetetraacetate (EDTA), 1 mM ethylene glycolbis(2-aminoethyl)-N,N,N′,N′-tetraacetic acid (EGTA), 1 vol % Triton X-100, 2.5 mM sodium pyrophosphate, 1 mM β-glycerolphosphate, 1 mM Na3VO4, 1 μg/mL leupeptin). The lysate is centrifuged for 10 min. at 4° C. and the supernatant is transferred to a new tube. […] The absorbance is measured at λ=450 nm (Wallac Victor2; Perkin Elmer, USA) within 30 min. after adding the STOP solution. […]
The target in experiment [2] is T1, human recombinant kinase full-length Akt2 (Homo sapiens, UniProt P31751).
T1 construct: human recombinant kinase full-length Akt2; His; purchased Invitrogen PV 3975; host or cells: insect cells
Put plainly: Akt2 kinase assay (TR-FRET). Type of experiment: biochemical. The conditions noted are these: Akt2 activated by PDK1, 10 μM ATP, 1 μM peptide substrate, 60 min at 22° C.; read-out: IC50 Akt2 (Biological Assay 2.0). The source says: Biological Assay 2.0: Akt2 Kinase Assay
Akt2 inhibitory activity of compounds of the present invention was quantified employing the Akt2 TR-FRET assay as described in the following paragraphs.
(§1) His-tagged human recombinant kinase full-length Akt2 expressed in insect cells and activated by PDK1 was purchased form Invitrogen (part number PV 3975). As substrate for the kinase reaction the biotinylated peptide biotin-Ahx-KKLNRTLSFAEPG (C-terminus in amide form) was used which can be purchased e.g. from the company Biosynthan GmbH (Berlin-Buch, Germany). For the assay 50 nl of a 100 fold concentrated solution of the test compound in DMSO was pipetted into a black low volume 384 well microtiter plate (Greiner Bio-One, Frickenhausen, Germany), 2 μl of a solution of Akt2 in assay buffer [50 mM TRIS/HCl pH 7.5, 5 mM MgCl2, 1 mM dithiothreitol, 0.02% (v/v) Triton X-100 (Sigma)] were added and the mixture was incubated for 15 min at 22° C. to allow pre-binding of the test compounds to the enzyme before the start of the kinase reaction. Then the kinase reaction was started by the addition of 3 μl of a solution of adenosine-tri-phosphate (ATP, 16.7 μM=>final conc. in the 5 μl assay volume is 10 μM) and substrate (1.67 μM=>final conc. in the 5 μl assay volume is 1 μM) in assay buffer and the resulting mixture was incubated for a reaction time of 60 min at 22° C. The concentration of Akt2 in the assay was adjusted depending of the activity of the enzyme lot and was chosen appropriate to have the assay in the linear range, typical enzyme concentrations were in the range of about 0.2 ng/μl (final conc. in the 5 μl assay volume).
(§2) The reaction was stopped by the addition of 5 μl of a solution of HTRF detection reagents (200 nM streptavidine-XL665 [Cisbio] and 1.5 nM anti-phosho-Serine antibody [Millipore, cat. #35-001] and 0.75 nM LANCE Eu-W 1024 labeled anti-mouse IgG antibody [Perkin Elmer]) in an aqueous EDTA-solution (100 mM EDTA, 0.1% (w/v) bovine serum albumin in 50 mM HEPES/NaOH pH 7.5). The resulting mixture was incubated 1 h at 22° C. to allow the binding of the biotinylated phosphorylated peptide to the streptavidine-XL665 and the antibodies. Subsequently the amount of phosphorylated substrate was evaluated by measurement of the resonance energy transfer from the anti-mouse-IgG-Eu-Chelate to the streptavidine-XL665. Therefore, the fluorescence emissions at 620 nm and 665 nm after excitation at 350 nm was measured in a TR-FRET reader, e.g. a Rubystar (BMG Labtechnologies, Offenburg, Germany) or a Viewlux (Perkin-Elmer). The ratio of the emissions at 665 nm and at […] was taken as the measure for the amount of phosphorylated substrate. The data were normalised (enzyme reaction without inhibitor=0% inhibition, all other assay components but no enzyme=100% inhibition).
A general note: TR-FRET usually uses a lanthanide donor and a delayed reading to cut background.

In experiment [3] the target is T2, human recombinant kinase full-length Akt1 (Homo sapiens, UniProt P31749).
T2 construct: human recombinant kinase full-length Akt1; His; purchased Invitrogen PV 3599; host or cells: insect cells
Kind of experiment: Akt1 kinase assay (TR-FRET). Type of experiment: biochemical. The note with it: 10 μM ATP, 1 μM peptide substrate, 60 min at 22° C.; read-out: IC50 Akt1 Biological Assay 1.0).
Source text: Biological Assay 1.0: Akt1 Kinase Assay
Akt1 inhibitory activity of compounds of the present invention may be quantified employing the Akt1 TR-FRET assay as described in the following paragraphs.
His-tagged human recombinant kinase full-length Akt1 expressed in insect cells was purchased form Invitrogen (part number PV 3599). As substrate for the kinase reaction the biotinylated peptide biotin-Ahx-KKLNRTLSFAEPG (C-terminus in amide form) was used which can be purchased e.g. from the company Biosynthan GmbH (Berlin-Buch, Germany).
as §1, with “For” for “His-tagged human recombinant kinase full-length Akt2 expressed in insect cells and activated by PDK1 was purchased form Invitrogen (part number PV 3975). As substrate for the kinase reaction the biotinylated peptide biotin-Ahx-KKLNRTLSFAEPG (C-terminus in amide form) was used which can be purchased e.g. from the company Biosynthan GmbH (Berlin-Buch, Germany). For”, “Akt1” for “Akt2”, “0.05” for “0.2”
as §2, with “HTRF” for “TR-FRET”, “inhibition). Normally test compound were tested on the same microtiter plate at 10 different concentrations in the range of 20 μM to 1 nM (20 μM, 6.7 μM, 2.2 μM, 0.74 μM, 0.25 μM, 82 nM, 27 nM, 9.2 nM, 3.1 nM and 1 nM, dilution series prepared before the assay at the level of the 100 fold conc. stock solutions by serial 1:3 dilutions) in duplicate values for each concentration and […] were calculated by a 4 parameter fit using an inhouse software.” for “inhibition).”

For orientation: IC50 means the concentration that gives 50% inhibition.

T2 sequence (P31749 whole entry): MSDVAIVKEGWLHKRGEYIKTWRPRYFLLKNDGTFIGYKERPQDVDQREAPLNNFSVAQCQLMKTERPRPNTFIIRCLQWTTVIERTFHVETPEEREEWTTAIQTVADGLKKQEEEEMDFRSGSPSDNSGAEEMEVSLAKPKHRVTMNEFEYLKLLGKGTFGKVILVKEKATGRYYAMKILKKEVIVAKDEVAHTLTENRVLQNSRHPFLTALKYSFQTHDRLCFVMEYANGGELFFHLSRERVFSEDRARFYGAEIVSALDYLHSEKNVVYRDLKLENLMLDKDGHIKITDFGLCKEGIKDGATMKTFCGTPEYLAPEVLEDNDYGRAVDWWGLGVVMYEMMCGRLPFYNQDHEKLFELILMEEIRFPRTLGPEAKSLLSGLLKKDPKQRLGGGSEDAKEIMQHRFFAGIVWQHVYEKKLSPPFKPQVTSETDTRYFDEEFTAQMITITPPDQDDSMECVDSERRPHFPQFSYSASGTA
T1 sequence (P31751 whole entry): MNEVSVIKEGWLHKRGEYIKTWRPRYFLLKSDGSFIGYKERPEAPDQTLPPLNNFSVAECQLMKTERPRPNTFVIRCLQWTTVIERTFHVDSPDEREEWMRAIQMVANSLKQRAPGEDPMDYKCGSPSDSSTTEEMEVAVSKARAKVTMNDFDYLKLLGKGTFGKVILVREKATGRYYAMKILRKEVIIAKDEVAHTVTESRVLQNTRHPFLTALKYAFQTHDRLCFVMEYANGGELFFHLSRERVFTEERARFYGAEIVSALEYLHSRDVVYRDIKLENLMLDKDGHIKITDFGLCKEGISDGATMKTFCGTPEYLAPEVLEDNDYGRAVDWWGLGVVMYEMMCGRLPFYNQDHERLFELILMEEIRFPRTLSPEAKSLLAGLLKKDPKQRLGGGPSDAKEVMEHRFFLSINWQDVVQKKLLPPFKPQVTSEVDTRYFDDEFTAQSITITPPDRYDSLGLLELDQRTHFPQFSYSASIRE

`Cc1nc(-c2ccc(CN3CCC(c4n[nH]c(-c5ccccn5)n4)CC3)cc2)c(-c2ccccc2)c2nccn12` [Example 1.0, 5-methyl-8-phenyl-7-{4-[4-(5-pyridin-2-yl-1H-[1,2,4]triazol-3-yl)-piperidin-1-ylmethyl]-phenyl}-imidazo[1,2-c]pyrimidine]: the results for the IC50 in experiment [1], in experiment [2] and in experiment [3] were below 50 nM, 53 nM and 4 nM, respectively.

For the compound `c1ccc(-c2c(-c3ccc(CN4CCC(c5n[nH]c(-c6ccccn6)n5)CC4)cc3)ncn3ccnc23)cc1` [Example 2.0, 8-phenyl-7-{4-[4-(5-pyridin-2-yl-1H-[1,2,4]triazol-3-yl)-piperidin-1-ylmethyl]-phenyl}-imidazo[1,2-c]pyrimidine], the values for the IC50 in experiment [1], in experiment [2] and in experiment [3] were 8 nM, 42 nM and 8 nM, respectively.
